Assay results: patent US20090281047A1, “Compositions And Methods For Immunotherapy” (priority 2008, published 2009)

Key:
candadiasis = test: Treatment of candadiasis (Example XIV); assay type: in vivo, human; settings: 25 individuals; 200 mg in 1 liter alkaline water pH 11 twice daily for three months
Experimental: 25 individuals with candadiasis were administered a solution comprising, 1 liter of Alkaline water prepared as described in Example XI and diluted with non-chlorinated drinking water to a pH of 11 mixed with 200 mg of columbianitin extracted from Lomatium Disectum, twice daily for three months.

[1] = tested on: Methicillin Resistant Staphylococcus aureus (MRSA); test: Treatment of MRSA (Example XV); assay type: in vivo, human; settings: three individuals; 200 mg in 1 liter alkaline water pH 11 twice daily for three months
Experimental: Three individuals suffering from MRSA were administered a solution comprising, 1 liter of Alkaline water prepared as described in Example XI and diluted with non-chlorinated drinking water to a pH of 11 mixed with 200 mg of columbianitin extracted from Lomatium Disectum, twice daily for three months.

Lyme Disease = test: Treatment of Lyme Disease (Example XII); assay type: in vivo, human; settings: five individuals; 200 mg in 1 liter alkaline water pH 11 twice daily for three months
Experimental: Five individuals positive for Lyme Disease were administered a solution comprising 1 liter of Alkaline water prepared as described in Example XI and diluted with non-chlorinated drinking water to a pH of 11 mixed with 200 mg of columbianitin extracted from Lomatium Disectum twice daily for three months.

Epstein Barr virus = test: Treatment of Epstein Barr (Example XIII); assay type: in vivo, human; settings: thirty five individuals; 200 mg in 1 liter alkaline water pH 11 twice daily for three months
Experimental: Thirty five individuals with Epstein Barr virus were administered a solution comprising, 1 liter of Alkaline water prepared as described in Example XI and diluted with non-chlorinated drinking water to a pH of 11 mixed with 200 mg of columbianitin extracted from Lomatium Disectum, twice daily for three months.

[2] = tested on: varying malignancies including neuroendocrine cancer, nasal adenocarcinoma, brain stem tumor, thymoma, and histiocytoma; test: Treatment of dogs with varying malignancies (Example X); assay type: in vivo, dog; settings: eight dogs; IV five days a week for three weeks, then 1 to 2 grams methacrylate coated para-hydroxyl-benzaldehyde-O-B-D-allopyranoside in food; some also acupuncture/alkaline water
Experimental: Eight dogs weighing between 60 and 80 pounds with varying malignancies including neuroendocrine cancer, nasal adenocarcinoma, brain stem tumor, thymoma, and histiocytoma were treated with 6 cc of the DMSO solution of Example II diluted in 200 cc saline administered intravenously five days a week for three weeks. The dogs were then given 1 to 2 grams of methacrylate coated para-hydroxyl-benzaldehyde-O-B-D-allopyranoside in their food seven days a week until they entered remission. Six of the dogs also received acupuncture and one received acupuncture and alkaline water.

breast cancer = test: Treatment of breast cancer patients (Example IX); assay type: in vivo, human
Source text: Forty-three of the patients in the study of Example VIII suffered from breast cancer. These forty-three were divided into four groups. One group of 7 was given the glycome solution of Example II; a group of five was given the glycome solution of Example II in combination with chemotherapy; a group of thirteen was given the glycome solution of Example II in combination with chemotherapy and Poly-MVA® (AMARC Enterprises, Inc., Spring Valley, Calif.) (blend of Palladium and alpha-lipoic Acid, Vitamins B1, B2 and B12, Formylmethionine, Acetyl Cystiene, and trace amounts of Molybdinum, Rhodium, and Ruthenium); and the remaining eighteen were given a combination of the glycome solution of Example II and Poly-MVA® (AMARC Enterprises, Inc., Spring Valley, Calif.) without chemotherapy. Patients receiving the glycome solution were given a solution containing three grams of the powder isolated in Example I a day intravenously for five days then six capsules containing a total of 3 g/day of para-hydroxyl-benzaldehyde-O-B-D-allopyranoside formulated according to Example IV and two capsules containing the formulation of Example V orally for two days, repeating for four weeks. They were then given six capsules containing a total of 3 g/day of para-hydroxyl-benzaldehyde-O-B-D-allopyranoside formulated according to Example IV and two capsules containing the formulation of Example V orally per day until they entered remission.

| SMILES | skin infections at the end of three months (candadiasis) | vaginal infections at the end of three months (candadiasis) | clinical outcome at the end of three months [1] | Lyme disease test at the end of three months (Lyme Disease) | Epstein Barr virus test at the end of three months (Epstein Barr virus) | tumor response [2] | breast cancer patients survived for at least two years, overall (breast cancer; all forty-three breast cancer patients, all four treatment groups) | breast cancer patients survived (breast cancer; group of eighteen, combination with Poly-MVA without chemotherapy) | breast cancer patients survived (breast cancer; group of five, combination with chemotherapy) |
| --- | --- | --- | --- | --- | --- | --- | --- | --- | --- |
| CC(C)(O)[C@@H]1Cc2c(ccc3ccc(=O)oc23)O1 [columbianitin] | resolved | remained the same | all three individuals improved considerably | all five individuals tested negative | all thirty-five individuals tested negative | – | – | – | – |
| O=Cc1ccc(O[C@@H]2O[C@H](CO)[C@@H](O)[C@@H](O)[C@H]2O)cc1 [para-hydroxyl-benzaldehyde-O-B-D-allopyranoside] | – | – | – | – | – | significant reduction or elimination of the tumor | 79% | seventy-eight | 100% |
